Measured values taken from ChEMBL document CHEMBL1153155, “Ring-fused pyrazole derivatives as potent inhibitors of lymphocyte-specific kinase (Lck): Structure, synthesis, and SAR” (Bioorg Med Chem Lett, 2010).

Legend:
Lymphocyte = test: Immunosuppressive activity in C57BL/6 mouse lymphocytes cocultured with mitomycin C-stimulated BALB/c mouse splenocyte assessed as [3H]thymidine incorporation after 72 hrs by mixed lymphocyte reaction
[1] = biological target: Mitogen-activated protein kinase 1 (Homo sapiens, UniProt P28482); test: Inhibition of MAPK1
Mitogen-activated protein kinase 1, sequence (P28482 whole entry): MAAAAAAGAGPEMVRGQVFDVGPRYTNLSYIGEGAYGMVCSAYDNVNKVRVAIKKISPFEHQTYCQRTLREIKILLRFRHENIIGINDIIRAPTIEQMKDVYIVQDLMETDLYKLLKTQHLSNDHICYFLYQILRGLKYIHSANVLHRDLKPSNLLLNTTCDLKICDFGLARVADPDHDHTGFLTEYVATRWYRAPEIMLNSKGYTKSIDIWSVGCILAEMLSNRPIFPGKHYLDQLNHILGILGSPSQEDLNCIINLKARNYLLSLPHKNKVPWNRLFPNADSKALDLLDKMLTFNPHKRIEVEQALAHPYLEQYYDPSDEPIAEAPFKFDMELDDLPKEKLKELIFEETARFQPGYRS

[2] = Inhibition of PKA
[3] = biological target: RAC-alpha serine/threonine-protein kinase (Homo sapiens, UniProt P31749); test: Inhibition of PKBalpha
RAC-alpha serine/threonine-protein kinase, sequence (P31749 whole entry): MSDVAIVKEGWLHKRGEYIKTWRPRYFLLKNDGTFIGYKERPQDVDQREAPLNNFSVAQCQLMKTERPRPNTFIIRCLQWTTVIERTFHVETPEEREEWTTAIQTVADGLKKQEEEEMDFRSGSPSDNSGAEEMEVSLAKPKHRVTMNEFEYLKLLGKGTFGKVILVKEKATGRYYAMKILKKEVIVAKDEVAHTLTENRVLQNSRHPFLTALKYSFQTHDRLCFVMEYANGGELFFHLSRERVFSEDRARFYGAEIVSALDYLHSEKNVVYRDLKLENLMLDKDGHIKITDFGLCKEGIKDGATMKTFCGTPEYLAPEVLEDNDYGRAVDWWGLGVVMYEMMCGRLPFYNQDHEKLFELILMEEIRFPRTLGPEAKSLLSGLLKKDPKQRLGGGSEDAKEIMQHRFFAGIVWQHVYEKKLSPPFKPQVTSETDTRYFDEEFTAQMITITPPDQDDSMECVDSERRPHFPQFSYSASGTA

[4] = biological target: T1, Calcium/calmodulin-dependent protein kinase type IV (Homo sapiens, UniProt Q16566); test: Inhibition of CamK4
T1 sequence (Q16566 whole entry): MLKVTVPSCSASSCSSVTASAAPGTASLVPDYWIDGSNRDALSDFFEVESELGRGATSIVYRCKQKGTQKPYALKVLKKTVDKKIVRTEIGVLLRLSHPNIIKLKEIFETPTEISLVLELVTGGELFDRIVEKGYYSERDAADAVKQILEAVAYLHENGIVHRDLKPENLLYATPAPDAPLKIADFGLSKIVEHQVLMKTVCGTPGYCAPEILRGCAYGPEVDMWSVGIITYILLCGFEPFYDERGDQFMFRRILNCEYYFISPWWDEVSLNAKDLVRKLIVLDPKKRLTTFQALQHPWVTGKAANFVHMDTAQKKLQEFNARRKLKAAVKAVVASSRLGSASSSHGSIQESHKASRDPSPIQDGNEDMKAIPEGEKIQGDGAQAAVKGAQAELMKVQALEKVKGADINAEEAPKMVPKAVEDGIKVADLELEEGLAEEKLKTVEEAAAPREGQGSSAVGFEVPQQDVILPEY

[5] = biological target: Protein kinase C alpha type (Homo sapiens, UniProt P17252); test: Inhibition of PKCalpha
[6] = biological target: Tyrosine-protein kinase Lck (Homo sapiens, UniProt P06239); test: Inhibition of GST-tagged human LCK by scintillation counting
Tyrosine-protein kinase Lck, sequence (P06239 whole entry): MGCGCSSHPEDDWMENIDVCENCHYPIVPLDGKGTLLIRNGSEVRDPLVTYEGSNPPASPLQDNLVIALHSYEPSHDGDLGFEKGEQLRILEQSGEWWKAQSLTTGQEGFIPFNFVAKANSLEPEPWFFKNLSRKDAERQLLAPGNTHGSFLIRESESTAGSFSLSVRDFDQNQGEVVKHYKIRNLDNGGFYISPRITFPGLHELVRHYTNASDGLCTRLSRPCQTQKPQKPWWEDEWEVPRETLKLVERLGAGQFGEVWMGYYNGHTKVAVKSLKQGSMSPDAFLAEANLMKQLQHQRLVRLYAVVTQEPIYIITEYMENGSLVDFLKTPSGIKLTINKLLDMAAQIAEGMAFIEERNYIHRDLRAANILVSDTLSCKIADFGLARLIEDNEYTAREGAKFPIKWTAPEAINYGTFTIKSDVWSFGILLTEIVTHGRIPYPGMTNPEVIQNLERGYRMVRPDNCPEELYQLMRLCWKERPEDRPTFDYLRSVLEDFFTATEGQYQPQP

[7] = biological target: Dual specificity mitogen-activated protein kinase kinase 1 (Homo sapiens, UniProt Q02750); test: Inhibition of MEK1
Dual specificity mitogen-activated protein kinase kinase 1, sequence (Q02750 whole entry): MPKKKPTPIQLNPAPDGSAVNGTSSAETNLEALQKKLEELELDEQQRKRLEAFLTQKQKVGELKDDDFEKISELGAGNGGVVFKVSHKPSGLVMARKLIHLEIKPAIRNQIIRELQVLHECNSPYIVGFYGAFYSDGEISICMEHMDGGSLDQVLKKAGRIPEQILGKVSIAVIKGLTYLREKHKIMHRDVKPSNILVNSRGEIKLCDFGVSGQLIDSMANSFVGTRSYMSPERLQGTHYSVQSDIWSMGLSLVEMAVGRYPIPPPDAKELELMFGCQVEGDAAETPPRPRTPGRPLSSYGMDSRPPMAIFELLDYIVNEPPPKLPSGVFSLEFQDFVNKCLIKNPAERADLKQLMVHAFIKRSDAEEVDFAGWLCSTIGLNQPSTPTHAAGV

[8] = biological target: T2, Tyrosine-protein kinase ZAP-70 (Homo sapiens, UniProt P43403); test: Inhibition of Zap70
T2 sequence (P43403 whole entry): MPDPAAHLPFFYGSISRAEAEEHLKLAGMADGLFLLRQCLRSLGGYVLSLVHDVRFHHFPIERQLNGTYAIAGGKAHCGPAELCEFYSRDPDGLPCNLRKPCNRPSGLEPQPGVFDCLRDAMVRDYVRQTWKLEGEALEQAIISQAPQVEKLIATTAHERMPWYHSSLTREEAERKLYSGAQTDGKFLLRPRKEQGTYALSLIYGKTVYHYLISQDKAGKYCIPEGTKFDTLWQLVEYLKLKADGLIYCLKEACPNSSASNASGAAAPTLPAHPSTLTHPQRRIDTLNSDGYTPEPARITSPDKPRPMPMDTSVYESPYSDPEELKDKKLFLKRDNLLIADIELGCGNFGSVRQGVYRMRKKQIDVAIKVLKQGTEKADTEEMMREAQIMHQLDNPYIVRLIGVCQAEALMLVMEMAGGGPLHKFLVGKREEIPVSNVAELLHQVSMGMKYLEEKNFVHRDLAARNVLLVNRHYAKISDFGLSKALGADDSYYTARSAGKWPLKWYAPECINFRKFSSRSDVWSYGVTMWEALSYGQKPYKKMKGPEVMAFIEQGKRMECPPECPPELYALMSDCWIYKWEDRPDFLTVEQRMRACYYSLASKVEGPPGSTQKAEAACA

[9] = biological target: Proto-oncogene tyrosine-protein kinase Src (Homo sapiens, UniProt P12931); test: Inhibition of SRC
Proto-oncogene tyrosine-protein kinase Src, sequence (P12931 2-536 limits assumed): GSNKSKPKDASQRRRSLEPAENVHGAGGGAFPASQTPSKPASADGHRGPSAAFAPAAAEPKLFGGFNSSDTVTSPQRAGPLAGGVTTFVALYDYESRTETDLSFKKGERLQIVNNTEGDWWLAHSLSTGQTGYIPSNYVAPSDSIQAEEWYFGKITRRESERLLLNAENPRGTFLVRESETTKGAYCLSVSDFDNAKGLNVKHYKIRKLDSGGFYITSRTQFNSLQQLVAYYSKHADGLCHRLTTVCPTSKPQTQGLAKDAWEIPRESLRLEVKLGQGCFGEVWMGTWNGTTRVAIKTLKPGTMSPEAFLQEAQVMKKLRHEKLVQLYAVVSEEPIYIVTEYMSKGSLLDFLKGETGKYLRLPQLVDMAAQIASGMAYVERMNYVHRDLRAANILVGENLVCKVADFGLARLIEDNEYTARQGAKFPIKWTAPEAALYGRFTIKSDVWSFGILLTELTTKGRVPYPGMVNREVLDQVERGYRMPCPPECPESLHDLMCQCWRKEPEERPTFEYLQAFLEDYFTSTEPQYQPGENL

[10] = biological target: Cyclin-dependent kinase 1 (Homo sapiens, UniProt P06493); test: Inhibition of CDK1
Cyclin-dependent kinase 1, sequence (P06493 whole entry): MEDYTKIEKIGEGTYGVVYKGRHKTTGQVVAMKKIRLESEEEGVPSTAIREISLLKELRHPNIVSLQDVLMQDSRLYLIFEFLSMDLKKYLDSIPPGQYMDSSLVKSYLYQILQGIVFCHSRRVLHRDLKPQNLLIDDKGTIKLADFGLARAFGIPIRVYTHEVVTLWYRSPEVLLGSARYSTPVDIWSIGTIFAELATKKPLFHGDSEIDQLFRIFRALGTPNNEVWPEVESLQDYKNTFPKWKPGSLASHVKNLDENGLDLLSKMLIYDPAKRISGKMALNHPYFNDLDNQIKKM

[11] = biological target: Tyrosine-protein kinase CSK (Homo sapiens, UniProt P41240); test: Inhibition of Csk

Row | Structure (SMILES) | IC50 (Lymphocyte) [nM] | further results
1 | CN(C)CCOc1ccc2c(c1)Nc1c(C(N)=O)c(-c3ccc(Oc4ccccc4)cc3)nn1CC2 | 6.4 | –
2 | CN(C)CCCOc1ccc2c(c1)CCn1nc(-c3ccc(Oc4ccccc4)cc3)c(C(N)=O)c1N2 | 0.85 | –
3 | NC(=O)c1c(-c2ccc(Oc3ccccc3)cc2)nn2c1Nc1cc(OCCN3CCOCC3)ccc1CC2 | 15 | –
4 | COc1ccc2c(c1)Nc1c(C(N)=O)c(-c3ccc(Oc4ccccc4)cc3)nn1CC2 | 300 | –
5 | CN(C)CCCOc1ccc2c(c1)Nc1c(C(N)=O)c(-c3ccc(Oc4ccccc4)cc3)nn1CC2 | 12 | –
6 | NC(=O)c1c(-c2ccc(Oc3ccccc3)cc2)nn2c1Nc1cc(OCCO)ccc1CC2 | 58 | –
7 | CN(C)CCOc1ccc2c(c1)CCn1nc(-c3ccc(NC(=O)Nc4ccccc4)cc3)c(C(N)=O)c1N2 | 50 | –
8 | CC(C)CCCOc1ccc2c(c1)Nc1c(C(N)=O)c(-c3ccc(Oc4ccccc4)cc3)nn1CC2 | 620 | IC50 [6]: > 100 nM
9 | CC(=O)COc1ccc2c(c1)Nc1c(C(N)=O)c(-c3ccc(Oc4ccccc4)cc3)nn1CC2 | 61 | –
10 | CN(C)CCOc1ccc2c(c1)CCn1nc(-c3ccc(NCc4c(Cl)cccc4Cl)cc3)c(C(N)=O)c1N2 | 1.3 | –
11 | CN(C)CCOc1ccc2c(c1)CCn1nc(-c3ccc(Nc4ccccc4)cc3)c(C(N)=O)c1N2 | 8.2 | –
12 | CN(C)CCOc1ccc2c(c1)CCn1nc(-c3ccc(NC(=O)OCc4ccccc4)cc3)c(C(N)=O)c1N2 | 23 | –
13 | NC(=O)c1c(-c2ccc(Oc3ccccc3)cc2)nn2c1Nc1ccc(OCc3ccncc3)cc1CC2 | 4.4 | –
14 | NC(=O)c1c(-c2ccc(Oc3ccccc3)cc2)nn2c1Nc1ccc(OCc3cccnc3)cc1CC2 | 1.5 | –
15 | NC(=O)c1c(-c2ccc(Oc3ccccc3)cc2)nn2c1Nc1ccc(OCCO)cc1CC2 | 1.2 | –
16 | CN(C)CCOc1ccc2c(c1)CCn1nc(-c3ccc(N)cc3)c(C(N)=O)c1N2 | 180 | –
17 | NC(=O)c1c(-c2ccc(Oc3ccccc3)cc2)nn2c1Nc1cc(OCc3cccnc3)ccc1CC2 | 52 | –

Now from value to compound, other results behind:

Row | IC50 (Lymphocyte) [nM] | Structure (SMILES) | further results
18 | 21 | CN(C)CCOc1ccc2c(c1)CCn1nc(-c3ccc(NC(=O)Nc4c(Cl)cccc4Cl)cc3)c(C(N)=O)c1N2 | –
19 | 8.4 | NC(=O)c1c(-c2ccc(Oc3ccccc3)cc2)nn2c1Nc1ccc(OCc3ccccn3)cc1CC2 | –
20 | 1.3 | NCCOc1ccc2c(c1)CCn1nc(-c3ccc(Oc4ccccc4)cc3)c(C(N)=O)c1N2 | –
21 | 0.74 | CN(C)CCOc1ccc2c(c1)CCn1nc(-c3ccc(Oc4ccccc4)cc3)c(C(N)=O)c1N2 | IC50 [1]: > 10000 nM; IC50 [2]: > 10000 nM; IC50 [3]: > 10000 nM; IC50 [4]: > 10000 nM; IC50 [5]: > 10000 nM; IC50 [6]: 0.72 nM; IC50 [7]: > 10000 nM; IC50 [8]: > 1000 nM; IC50 [9]: 0.6 nM; IC50 [10]: > 10000 nM; IC50 [11]: 1.7 nM
22 | 16 | NC(=O)COc1ccc2c(c1)Nc1c(C(N)=O)c(-c3ccc(Oc4ccccc4)cc3)nn1CC2 | –
23 | 12 | CN1CCN(CCOc2ccc3c(c2)Nc2c(C(N)=O)c(-c4ccc(Oc5ccccc5)cc4)nn2CC3)CC1 | –
24 | 38 | CN(C)CCOc1ccc2c(c1)CCn1nc(-c3ccc(O)cc3)c(C(N)=O)c1N2 | –
25 | 1.1 | NC(=O)c1c(-c2ccc(Oc3ccccc3)cc2)nn2c1Nc1ccc(OCCN3CCOCC3)cc1CC2 | –
26 | 88 | NC(=O)COc1ccc2c(c1)CCn1nc(-c3ccc(Oc4ccccc4)cc3)c(C(N)=O)c1N2 | –
27 | 6.7 | CN1CCN(CCOc2ccc3c(c2)CCn2nc(-c4ccc(Oc5ccccc5)cc4)c(C(N)=O)c2N3)CC1 | –
28 | > 1000 | NC(=O)c1c(-c2ccc(Oc3ccccc3)cc2)nn2c1Nc1cc(OCC(=O)O)ccc1CC2 | –
29 | 25 | NCCOc1ccc2c(c1)Nc1c(C(N)=O)c(-c3ccc(Oc4ccccc4)cc3)nn1CC2 | –
